The conditions of data set [1]: 42 mg or 84 mg of oral curcumin; even under metabolised forms; cited from earlier work.
Data set [2] can be described thus: Solubility of curcumin and quercetin in phosphate buffer pH 6.8. Type of data set: physicochemical. The settings on record: 0.2 µm filter. As for the experimental part: Following the same protocol, the same amount of quercetin (150 mg) is solubilized in phosphate buffer pH 6.8. […] Solubilized quercetin: […] of the initial dose.

SMILES strings stand for the structures.

Regarding `COc1cc(C=CC(=O)CC(=O)C=Cc2ccc(O)c(OC)c2)ccc1O` [curcumin, 1,7-bis(4-hydroxyl-3-methoxyphenyl)-1,6-heptadiene-3,5-dione], in data set [1], the “oral bioavailability of low dosages of curcumin” value was “not bioavailable at all”. For the same molecule, the Solubilized curcumin in data set [2] (84 mg curcumin in 900 ml phosphate buffer pH 6.8, 1 hour at 37°C) is on record as 0.004 % of the initial dose.
Take `O=c1c(O)c(-c2ccc(O)c(O)c2)oc2cc(O)cc(O)c12` [quercetin, Quercetin]: the Solubilized quercetin in data set [2] (900 ml phosphate buffer pH 6.8, 1 h at 37°C) is listed as 4 % of the initial dose.
